Measurements taken from US6495529B1 (Warner-Lambert Company, priority 1998, dated 2002).

Legend:
Swiss-Webster mice = settings: mice pretreated with 0.01, 0.1 or 1.0 mg/kg triprolidine
Protocol: The mice were immediately placed in the activity testing chamber for a 2-h session. Doses of the test compound were selected from the ascending or descending time of the dose-effect curve determined from the compound-alone studies. Eight mice were tested for each triprolidine/sympathomimetic combination.
Time course data for each compound were considered in 2-way analyses of variance with dose as a between-group and time as a within-group factor. The dose-effect data were considered in 1-way analyses of variance, and planned individual comparisons were conduced between each dose and the saline control group. Interaction studies were considered in 2-way analyses of variance, with Pretreatment and Test dose as the factors.

α1-receptors = format: binding, dog; settings: read-out: Alpha-1 Ki
Protocol: The lungs of mongrel dogs were separated from cartilaginous airways and major blood vessels, weighted, chopped and placed into 10 volumes of ice-cold buffered sucrose (50 mM Tris-HCl pH 7.4, 1 mM EGTA, 0.32 M Sucrose). The tissue was then homogenized in a Polytron tissue homogenizer. The homogenate was filtered through two layers of cheesecloth, and the filtrate was dounced three times using a Con-Turque Potter homogenizer. […] The supernatant was recentrifuged at 30,000×g for 30 min at 4° C. and the resulting pellet was washed and resuspended in 10 volumes of Tris buffer (50 mM Tris HCL, pH 7.4, 1 mM EGTA) and incubated at 37° C. for 30 min in a shaking water bath. The suspension was centrifuged at 4° C., at 30,000×g for 30 min and the resulting pellet washed in 10 volumes of Tris buffer. […] Protein concentration was then determined by the Lowry method and the final suspension was adjusted to 10 mg of protein/ml, aliquoted and stored at −90° C.
Nonspecific binding was determined for each concentration point in separate incubations, with 10 μM phentolamine. Each experimental point was determined in triplicate. […] All binding assay incubations were terminated by rapid dilution with 2 ml of ice-cold wash buffer (50 mM Tris-HCl, pH 7.4) and filtration through Whatman GF/B filters using Brandel receptor-binding harvester.
(§1) All data were analyzed with the aid of microcomputer nonlinear curve fitting programs (PRISM 2.0, Graphpad Software, San Diego Calif.).
The receptors resident in each of the three membrane preparations were evaluated by standard saturation analysis following the addition of increasing concentrations of the appropriate radioligand. […]

α2-receptors = assay: ALPHA-2 binding, p-125Iodoclonidine, canine brain (frontal cortex) membranes; parameters: species or system dog
Protocol: Membranes of mongrel dogs were harvested from the canine frontal cortex and prepared as described for lung except that the final membrane protein concentration was adjusted to 0.5 mg/ml.
Nonspecific binding was determined in separate incubations in the presence of 10 μM phentolamine. The final concentration of p-iodoclonidine was 44-45 pM in competition studies and between 50 pM and 10 nM in saturation experiments. Bound and free […] were separated and the bound quantitated as described above for the ICYP assays.
as §1
The receptors resident in each of the three membrane preparations were evaluated by standard saturation analysis following the addition of increasing concentrations of the appropriate radioligand.
The radio ligand added for subsequent α2-displacement assays was adjusted to evaluate only the high affinity receptor. Contributions from p-iodoclonidine binding to imidazoline receptors in the α2-displacement assay were evaluated with epinephrine.

Structure (SMILES): CNC[C@H](O)c1cccc(O)c1 [(−)-phenylephrine]
- modification of stimulant or depressant effects by triprolidine pretreatment (Swiss-Webster mice): did not show significant modification of stimulant or depressant effects
- Ki (α1-receptors): 3000 nM

Structure (SMILES): CN[C@@H](C)[C@H](O)c1ccccc1 [(−)-ephedrine]
- Ki (α1-receptors): 47000 nM
